# Patent publication US8883415B2, “Aza-benzazolium containing cyanine dyes” (Life Technologies Corporation, priority 1999, dated 2014)
# Entries after “also recorded” stand apart in the source; their conditions may differ.
# Tests used:
# bovine serum albumin = bovine serum albumin (Bos taurus, UniProt P02769); assay: Detecting proteins in solution; assay type: binding; settings: 2 micromolar dye, 0.05% SDS; either 10 minutes at 90° C. or 5-60 minutes at room temperature
# Method: Compound 51 and Compound 44 are dissolved in DMSO at 1-10 mM and then diluted into 10 mM Tris-HCl, 1 mM EDTA, pH 7.5, containing 0.05% sodium dodecyl sulfate, to a final concentration of 2 micromolar. This dye solution is combined with samples containing bovine serum albumin at 100 ng/mL to 10 micrograms/mL. Samples are optionally incubated for 10 minutes at 90° C. and then cooled to room temperature, or are incubated for 5-60 minutes at room temperature. Fluorescence is measured using a fluorescence microplate reader with excitation at 540 nm and emission at 590 nm for Compound 44 and with excitation at 600 nm and emission at 670 nm for Compound 51. The fluorescence signal obtained from Compound 44 or 51 in buffer alone (control) is subtracted from the fluorescence recorded for the protein-containing samples in order to determine the intensity of the signal that is due to the presence of protein. Protein concentrations are then determined by comparison of the signal intensity thus obtained with the signals obtained using a dilution series of known concentration prepared using either the same protein or a protein standard, such as bovine serum albumin. The sensitivity limit for either dye under either condition is about 100 ng/mL bovine serum albumin (FIGS. 3 and 4).
# [1] = system: double-stranded bacteriophage λ cl857 DNA that is digested with HindIII restriction endonuclease; assay: Detecting nucleic acids in gels; assay type: binding; settings: 1 micromolar dye
# Method: DNA samples are loaded onto agarose or polyacrylamide gels and electrophoresed using standard conditions. Selected dyes of the invention are dissolved in DMSO at a concentration of 1-10 micromolar and diluted into 0.5×TBE buffer to a final concentration of 1 micromolar dye. Gels are incubated for 20-90 minutes in this staining solution, with gentle agitation, at room temperature, protected from light. Nucleic acids are visualized by transillumination at 300 nm, followed by direct visual detection or photography using Polaroid black-and-white print film. Nucleic acids are alternatively visualized by scanning using a FMBIO II laser scanner with a 532 nm frequency-doubled YAG laser source or a charge-coupled device camera system coupled with an ultraviolet (300 nm) light source, or a visible light transilluminator.
# [2] = system: double-stranded bacteriophage λ cl857 DNA that is digested with HindIII restriction endonuclease; assay: Detecting nucleic acids in gels; assay type: binding; settings: POLAROID 667 B&W film; FOTODYNE 254 nm epi.; 1 micromolar dye
# double-stranded DNA [3] = assay: Detecting double-stranded DNA in the presence of single-stranded DNA; assay type: binding; settings: nucleic acids 2 micrograms/mL; dye 1 micromolar; excitation 540 nm, emission 570 nm
# Method: Samples containing nucleic acids at a concentration of 2 micrograms/mL are combined with Compound 16, Compound 22, or Compound 24 at a final dye concentration of 1 micromolar in 10 mM Tris-HCl, 1 mM EDTA, pH 7.5, and mixed gently. The resulting mixture is allowed to incubate for 5-60 minutes at room temperature, protected from light, and sample fluorescence is measured using a fluorescence microplate reader, with excitation at 540 nm and emission at 570 nm. […] If, however, the dye concentration is reduced relative to the concentration of single-stranded nucleic acids, the fluorescence upon binding those nucleic acids increases relative to that of the double-stranded DNA-dye complex. Thus the assay is always performed in sufficient dye excess.
# double-stranded DNA [4] = assay: Detecting double-stranded DNA in solution (fluorescence microplate reader); assay type: binding; settings: Excitation 540 nm/Emission 570 nm
# Method: Samples containing 0.1 ng/mL to 1 microgram/mL double-stranded DNA are prepared in 10 mM Tris-HCl, 1 mM EDTA, pH 7.5. The selected dye of the invention is dissolved in DMSO at a concentration of 1-10 mM and then diluted into the same buffer at a concentration sufficient to achieve final optical densities of 0.1 and 0.01 at 500 nm, 530 nm, 540 nm or 560 nm. Equal volumes (100 microliters each) of DNA sample solution and dye solution at each concentration are combined and mixed gently at room temperature in a microplate well.
# Samples are allowed to equilibrate for 5-60 minutes, protected from light, and the fluorescence of the sample is measured using a fluorescence microplate reader. DNA concentration is determined by comparison of the sample fluorescence with a standard curve obtained with that dye for each dye concentration. The sensitivity limit of several dyes in this assay is shown (Table 5).
# [5] = system: 18-base oligodeoxynucleotide sequencing primer; assay: Detecting oligonucleotides in solution; assay type: binding; settings: Excitation 540 nm/Emission 570 nm
# Method: Selected dyes of the invention are dissolved in DMSO at 1-10 micromolar concentration, then diluted into 10 mM Tris-HCl, 1 mM EDTA, pH 7.5 to a final optical density of 0.1 or 0.01 at 530 nm or 540 nm. The resulting dye solutions are combined with an equal volume of an 18-base oligodeoxynucleotide sequencing primer solution at concentrations of 0.1 ng/mL to 1 microgram/mL in the same buffer. The resulting mixture is mixed gently and incubated for 5-60 minutes at room temperature, protected from light, and the sample fluorescence is measured in a fluorescence microplate reader.
# proteins = assay: Detection of proteins in SDS-polyacrylamide gels; assay type: binding; settings: 1-3 μM dye in 7.5% acetic acid
# Method: The pure protein or mixture of proteins of interest is prepared in Loading Buffer (50 mM Tris-HCl, pH 6.8, 2% SDS, 10% glycerol, and 0.015% bromophenol blue). Dithiothreitol is added to each sample, to a final concentration of 0.1 M. The samples are heated for 4-5 minutes at 90-95 °C and loaded onto a 15% Tris-glycine polyacrylamide mini- or full-sized gel containing 0.05%-0.1% SDS, with a 4% stacking gel. The gel is electrophoresed under standard conditions, in a standard Tris-glycine buffer containing 0.05%-0.1% SDS. The resulting gel is transferred to a small staining dish containing a 1-3 μM solution of Compound 25 in 7.5% acetic acid (in water). The staining solution is then covered with foil to protect it from room light and gently agitated for 45 minutes-1 hour. […] The gel is then removed from the staining dish, rinsed briefly in 7.5% acetic acid and transferred directly to a UV-transilluminator. The gel, with the stained protein bands is photographed using 300 nm transillumination and black and white POLAROID 667 print film with a Wratten 9 gelatin filter. […] Proteins appear as white bands on a grey to black background in the POLAROID photograph.
# [6] = system: Escherichia coli ribosomal RNA; assay: Detecting RNA in solution; assay type: binding; settings: Excitation 540 nm/Emission 570 nm
# Method: Selected dyes of the invention are dissolved in DMSO at 1-10 micromolar concentration, then diluted into 10 mM Tris-HCl, 1 mM EDTA, pH 7.5 to a final optical density of 0.1 or 0.01 at 530 nm or 540 nm. These dye solutions are combined with an equal volume of Escherichia coli ribosomal RNA at concentrations ranging from 0.25 ng/mL to 1 microgram/mL in microplate wells. The resulting mixtures are mixed gently and incubated for 5-60 minutes at room temperature, protected from light, and the sample fluorescence is measured.
# DNA = assay: Excitation and emission wavelengths when associated with DNA; assay type: physicochemical
# [7] = system: Jurkat human T-cell leukemia cells; assay: Detection of apoptosis by flow cytometry; assay type: cell-based; settings: 1.5 μM; 30 minutes on ice; 488 nm excitation
# Method: A 1 mM solution of Compound 27 in DMSO is prepared. Jurkat human T-cell leukemia cells are treated with 10 μM camptothecin to induce apoptosis. A sample of the cells (1×10^8 cells/mL) is incubated with enough of the Compound 27 stock solution to give a final dye concentration of 0.1 μM, and sufficient propidium iodide to give a final concentration of 1.5 μM. After incubating for 30 minutes on ice, the cell samples are analyzed on a FacsVantage flow cytometer using 488-argon laser excitation, with emission at 530/30 and 675/20. Apoptotic cells are compared to control cells that were incubated with the same final concentration of DMSO used in the staining solution.
# [8] = BOEHRINGER MANNHEIM LUMIIMAGER CCD, 300 nm trans., 520 nm em.
# [9] = BOEHRINGER MANNHEIM LUMIIMAGER CCD, 300 nm trans., 545 nm em
# [10] = HITACHI FMBIO II laser scanner, 532 nm freq.-doubled YAG laser
# [11] = POLAROID 667 B&W film, DARK READER visible light box
# [12] = POLAROID 667 B&W film, FOTODYNE 300 nm trans.
# Chain of bovine serum albumin (P02769 25-607): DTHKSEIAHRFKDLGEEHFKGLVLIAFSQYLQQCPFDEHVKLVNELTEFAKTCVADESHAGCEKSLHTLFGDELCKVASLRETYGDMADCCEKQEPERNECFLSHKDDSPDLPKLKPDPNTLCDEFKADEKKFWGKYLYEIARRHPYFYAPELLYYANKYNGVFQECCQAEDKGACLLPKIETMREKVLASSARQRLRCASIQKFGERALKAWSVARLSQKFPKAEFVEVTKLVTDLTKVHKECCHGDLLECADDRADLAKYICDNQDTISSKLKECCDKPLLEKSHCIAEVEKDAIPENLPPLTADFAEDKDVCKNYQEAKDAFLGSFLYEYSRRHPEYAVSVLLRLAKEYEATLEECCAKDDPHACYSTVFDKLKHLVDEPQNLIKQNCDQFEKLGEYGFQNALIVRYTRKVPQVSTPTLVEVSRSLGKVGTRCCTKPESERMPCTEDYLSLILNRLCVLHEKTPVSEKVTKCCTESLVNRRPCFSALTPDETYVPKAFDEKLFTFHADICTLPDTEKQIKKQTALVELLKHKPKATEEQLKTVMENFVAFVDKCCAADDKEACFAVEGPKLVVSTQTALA
structure (smiles),measurement,setting,value
CCCCC1=C/C(=C\c2nc3c(cc(Br)c[n+]3C)s2)c2ccccc2N1c1ccccc1.[I-] [Compound 44],Sensitivity limit for bovine serum albumin,bovine serum albumin,about 100 ng/mL
CCN(CC)Cc1ccc(C2=C/C(=C\c3nc4c(ccc[n+]4C)o3)c3ccccc3N2C)cc1.[I-] [Compound 22],Sensitivity for detecting double-stranded DNA in agarose gels,[1]; [8],830 pg
same,Sensitivity for detecting double-stranded DNA in agarose gels,[1]; [9],50 pg
same,Sensitivity for detecting double-stranded DNA in agarose gels,[1]; [10],7 pg
same,Sensitivity for detecting double-stranded DNA in agarose gels,[1]; [11],60 pg
same,Sensitivity for detecting double-stranded DNA in agarose gels,[1]; [12],120 pg
same,Sensitivity for detecting double-stranded DNA in agarose gels,[2],30 pg
same,Preferential fluorescent staining of double-stranded DNA in the presence of single-stranded DNA and RNA,double-stranded DNA [3],preferential fluorescent staining of double-stranded DNA; also recorded: detected preferentially
same,"Sensitivity Limit, High dye concentration (0.1 OD)",double-stranded DNA [4],10 ng/mL
same,"Sensitivity Limit, Low dye concentration (0.01 OD)",double-stranded DNA [4],1.0 ng/mL
CC[N+](C)(CC)Cc1ccc(C2=C/C(=C\c3nc4c(ccc[n+]4C)o3)c3cc(OC)ccc3N2C)cc1 [Compound 25],Sensitivity for detecting double-stranded DNA in agarose gels,[1]; [8],1700 pg
same,Sensitivity for detecting double-stranded DNA in agarose gels,[1]; [9],100 pg
same,Sensitivity for detecting double-stranded DNA in agarose gels,[1]; [10],25 pg
same,Sensitivity for detecting double-stranded DNA in agarose gels,[1]; [11],240 pg
same,Sensitivity for detecting double-stranded DNA in agarose gels,[1]; [12],120 pg
same,Sensitivity for detecting double-stranded DNA in agarose gels,[2],120 pg
same,"Sensitivity Limit, High dye concentration (0.1 OD)",[5],<10 ng/mL
same,"Sensitivity Limit, Low dye concentration (0.01 OD)",[5],>10 ng/mL
same,Visual appearance of stained protein bands,proteins; 300 nm transillumination,brightly fluorescent orange bands
same,Visibility of protein bands in stained gel,proteins; after 10 minutes,protein bands are readily apparent
same,"Sensitivity Limit, High dye concentration (0.1 OD)",[6],200 ng/mL
same,"Sensitivity Limit, Low dye concentration (0.01 OD)",[6],1.2 ng/mL
same,"Sensitivity Limit, High dye concentration (0.1 OD)",double-stranded DNA [4],<10 ng/mL
same,"Sensitivity Limit, Low dye concentration (0.01 OD)",double-stranded DNA [4],0.5 ng/mL
CN1C(c2ccccc2)=C/C(=C\C=C\c2nc3c(ccc[n+]3C)o2)c2ccccc21.[I-] [Compound 51],Sensitivity limit for bovine serum albumin,bovine serum albumin,about 100 ng/mL
CC[N+](C)(CC)Cc1ccc(C2=C/C(=C\c3nc4c(ccc[n+]4C)o3)c3ccccc3N2C)cc1 [Compound 24],Sensitivity for detecting double-stranded DNA in agarose gels,[1]; [8],420 pg
same,Sensitivity for detecting double-stranded DNA in agarose gels,[1]; [9],50 pg
same,Sensitivity for detecting double-stranded DNA in agarose gels,[1]; [10],5 pg
same,Sensitivity for detecting double-stranded DNA in agarose gels,[1]; [11],120 pg
same,Sensitivity for detecting double-stranded DNA in agarose gels,[1]; [12],60 pg
same,Sensitivity for detecting double-stranded DNA in agarose gels,[2],30 pg
same,Preferential fluorescent staining of double-stranded DNA in the presence of single-stranded DNA and RNA,double-stranded DNA [3],detected preferentially
same,"Sensitivity Limit, High dye concentration (0.1 OD)",double-stranded DNA [4],10 ng/mL
same,"Sensitivity Limit, Low dye concentration (0.01 OD)",double-stranded DNA [4],5.0 ng/mL
CN1C(c2ccccc2)=C/C(=C\c2nc3c(ccc[n+]3C)o2)c2ccccc21.[I-] [Compound 16],Sensitivity for detecting double-stranded DNA in agarose gels,[1]; [8],210 pg
same,Sensitivity for detecting double-stranded DNA in agarose gels,[1]; [9],50 pg
same,Sensitivity for detecting double-stranded DNA in agarose gels,[1]; [10],25 pg
same,Sensitivity for detecting double-stranded DNA in agarose gels,[1]; [11],240 pg
same,Sensitivity for detecting double-stranded DNA in agarose gels,[1]; [12],120 pg
same,Sensitivity for detecting double-stranded DNA in agarose gels,[2],30 pg
same,Preferential fluorescent staining of double-stranded DNA in the presence of single-stranded DNA and RNA,double-stranded DNA [3],preferential fluorescent staining of double-stranded DNA; also recorded: detected preferentially
same,"Sensitivity Limit, High dye concentration (0.1 OD)",double-stranded DNA [4],<10 ng/mL
same,"Sensitivity Limit, Low dye concentration (0.01 OD)",double-stranded DNA [4],1.0 ng/mL
CN1C=C/C(=C\C(=C\c2sc3ccccc3[n+]2C)c2ccccc2)c2ccccc21 [Compound 60],Emission wavelength,DNA,659 nm
same,Excitation wavelength,DNA,642 nm
"CC[N+](C)(CC)CCC[n+]1c(-c2ccccc2)c2cc(N)ccc2c2ccc(N)cc21.[I-].[I-] [propidium iodide, reference compound]",Cells stained,[7],Late stage apoptotic and necrotic cells are stained
